Key:
[1] = test system: HER2 positive cells (N87); assay: Live-cell radioimmunoassay (immunoreactivity) of radiolabeled HERCEPTIN preparations; type: binding, human; conditions: for HER2 + (percent binding): N87 cells, overnight 4° C., average of the serial dilutions; for HER2 − (percent binding): column HER2 −, not explained, text describes incubation with excess (10 μg) unlabeled HERCEPTIN
Experimental: The human colon carcinoma (LS-174T) cell line was grown in supplemented Eagle's minimum essential medium as previously described (see Brechbiel et al., Inorg Chem., 25, 2772 (1986); and Lagunas-Solar et al., Appl. Radiat. Isot., 38, 129-137 (1987)). The human gastric carcinoma cell line (N87) was kindly provided by Dr. Raya Mandler, Metabolism Branch, NCI. The N87 cell line (Jurcic et al., Advances in Pharmacology, Vol. 33, (J. T. August, M. W. Anders, F. Murad, J. T. Coyle Eds.) pp 287-314, Academic Press, Inc., New York, (1995)), which expresses high levels of HER2, was maintained in RPMI 1640 (Quality Biologicals, Gaithersburg, Md.) medium, supplemented with 10% fetal bovine serum (FBS) (Gemini Bio-Products, Woodland, Calif.) and 0.01 mM non-essential amino acids (Quality Biologicals, Gaithersburg, Md.).
The immunoreactivity of the RIC was assessed in a live-cell radioimmunoassay (RIA) as detailed elsewhere (Garmestani et al., Nuci. Med. Biol., 29, 599-606 (2002)). HER2 positive cells (N87) were harvested, pelleted at 1,000×g (Allegra 6KR; Beckman Coulter, Palo Alto, Calif.) and resuspended in PBS (pH 7.2) containing 1% BSA and were added to 12×75 […] polypropylene tubes (1×10^6 cells in 100 μL). Serial dilutions of the radiolabeled HERCEPTIN preparations (about 200,000 cpm -12,500 cpm in 50 μL) were then added in duplicate and gently shaken. Following an overnight incubation at 4° C., the cells were washed once with 4 mL of 1% BSA in PBS and pelleted at 1,000×g for 5 min, and the supernatant was decanted. The pelleted cells were then counted in a γ-scintillation counter (Packard), and the percent binding was calculated for each dilution. The values presented in Table 1 are an average of the serial dilutions. To confirm the specific reactivity of the RIC, cells were incubated with about 200,000 cpm of the RIC along with an excess (10 μg) of unlabeled HERCEPTIN.

[2] = test system: human colon carcinoma (LS-174T) xenografts; conditions: mouse, in vivo
Experimental: The radioimmunoconjugates (RICs) were compared in vivo using athymic mice bearing human colon adenocarcinoma xenografts. Female athymic mice (nu/nu), obtained from Charles River Laboratories (Wilmington, Mass.) at 4-6 weeks of age, were injected subcutaneously on the flank with 2×10^6 LS-174T cells in 0.2 mL of RPMI-1640. At approximately 10-14 days, when the tumors measured between 0.4-0.6 cm in diameter, the mice received the ^177Lu-labeled HERCEPTIN. The mice were injected with each RIC (about 5 μCi of each) intravenously (i.v.) via the tail vein. Mice (n=5) were sacrificed by exsanguination at 24, 48, 72, 96 and 168 h.
Blood, tumor and the major organs were collected and wet-weighed, and the radioactivity was counted in a γ-counter (Minaxi-γ, Packard, Downers Grove, Ill.). The percent injected dose per gram (% ID/g) was determined for each tissue as well as the radiolocalization indices (% ID/g in tumor divided by the % ID/g in the normal tissue). The mean and average deviation for each tissue was also calculated.
Following injection of the radioimmunoconjugates (n=5), blood samples were collected at various time points via the tail vein in heparinized capillary tubes (10 μL). The blood was transferred to a tube, and the radioactivity was measured in a γ-counter. The percent injected dose per mL of blood was calculated for each of the samples.
If the radioactivity in the tissues is due to specific accumulation, then the tissue-to-blood ratio would increase as a function of time. If the radioactivity in the tissues is a result of that radioactivity present in the plasma compartment, then the tissue-to-blood ratio would remain constant with time.

leukemia cell line = conditions: directed against a leukemia cell line; Nikula et al. 1999; cited from earlier work

For 1B4M-DOTA (7), the “HER2 + (percent binding)” value [1] was 47.2%, the “HER2 − (percent binding)” value [1] was 6.7% and the “liver % ID/g, comparison among RIC” value [2] was “lowest liver % ID/g values throughout the entire study period”. For the same substance, the spleen-to-blood ratios [2] was “less than 1”.
In the case of Bismuth-labeled HuM195, the cell killing ability (leukemia cell line) is given as “specific and potent cell killing ability”.
With CHX-DOTA (14) the “HER2 + (percent binding)” value [1] was 45.8%, the “HER2 − (percent binding)” value [1] was 4.3% and the “femur-to-blood ratios, course over time” value [2] was “higher overall than the other RIC”. For the same substance, the spleen-to-blood ratios [2] was “less than 1”.

From patent US7368100B2, “Backbone-substituted bifunctional DOTA ligands, complexes and compositions thereof, and methods of using same” (The United States of America, represented by the Secretary, …, priority 2002, dated 2008)
